Series [1] deals with gram-positive bacteria (S. aureus and S. epidermidis). It is filed as cell-based. The protocol: Then, 10 μL of peptides was added. […] All assays were repeated in triplicate.
The subject of another series is PC/PG (7:3 w/w) LUVs. Briefly: Single-molecule force spectroscopy (AFM). It is filed as binding. The note with it: RMS ± SD; N-terminal Cys peptide on AFM tip via PEG linker; prokaryotic model membrane. The text has this:
(§1) Based on the above results, five selected peptides of V13L, A12L/A20L, V13K, V13E, and L6A/L17A, with different hydrophobicity and charges were used to examine the interaction probabilities and forces between peptides and membranes, both on the lipid model membranes and on the biological membranes by SMFS based on AFM, respectively. A cysteine residue was covalently introduced to the N-terminus of peptides and provided a free sulfhydryl group to modify the tips of the AFM. A PEG linker was used since each heterobifunctional PEG–NHS linker (approximately 20 nm) can only covalently connect with a single peptide molecule, which guarantees a single-molecule interaction between MAPs and biological membranes in real time[19]. If an AFM tip was functionalized with two or more peptides, where several peaks were recorded. In the reports, data with two peaks were not collected and calculated. For one force–distance cycle, one peptide-functionalized AFM tip approached the model and biological membranes right on the top, and the subsequent tip was withdrawn from the cell membranes to retrace the process. […] In addition, blocking experiment was used to test the specificity of these force events. As the electrostatic attraction is one important reason for peptides approaching model membranes and biological membranes, the Tris-HCl buffer including plenty amino groups[20] was injected into the working chamber and inhibits the interactions between MAPs and model membranes/biological membranes. […] The unbinding forces of V13L against different model membranes and biological membranes with the loading rate of 1 × 10^5 pN s^−1 are shown in Fig. 3c,f–h,j–l.
(§2) In accordance with previously described methods, LUVs were prepared with PC/PG (7:3 w/w), PC/Chol (8:1 w/w), and PC/SM/PE/PS/Chol (4.35:4.35:1:0.3:1 w/w) to mimic prokaryotic cell, […], membranes, respectively. Lipids using the freeze-thaw method as described previously, followed by extrusion through […] double-stacked nuclepore filters using an Mini-Extruder (Avanti Polar Lipids, Inc.)[11][27].
(§3) The AFM tip was first washed with concentrated sulfuric acid and hydrogen peroxide (3:1, v:v). The tip was dried using ozone (O3) for 15 min and dried overnight in a dryer. The tip was then modified with APTES under an argon atmosphere and the peptide connected with a PEG–NHS linker. Finally, the AFM tip linked with the peptide was washed three times in PBS and kept at 4 °C. A 500-μL LUV suspension was deposited on Lys coated glass and the LUVs were absorbed on the surface for 1 h at 65 °C [9][29]. A. laidlawii was deposited on poly-L-lysine coated glass and absorbed for 1 h at 37 °C [30]. The 3T3-L1 and HeLa cells were cultured on glass slides in Dulbecco’s modified Eagle’s medium (DMEM). Before performing force spectroscopy experiments, the cells were washed with fresh DMEM three times to remove the cell metabolites. Isolation of chicken erythrocytes was carried out at room temperature. Then the erythrocytes were washed three times in 2 mL PBS buffer by centrifuge (1,000 rpm) and resuspended in PBS buffer. 200 μL erythrocyte suspension were deposited onto poly-L-lysine coated glass for 20 min[10]. The force measurements of MAPs with LUVs mimicking membranes and living cells were performed using the AFM5500 (Agilent Technologies, Chandler, AZ, USA)[19].

Series [2] relates to PC/SM/PE/PS/Chol (4.35:4.35:1:0.3:1 w/w) LUVs. In words: Single-molecule force spectroscopy (AFM). It is filed as binding. The note with it: RMS ± SD; N-terminal Cys peptide on AFM tip via PEG linker; cancer cell model membrane.
Excerpt: as §1, §2, §3

A further series has as its system 3T3-L1 cells. Briefly: Single-molecule force spectroscopy (AFM). It is filed as binding, mouse. The note with it: RMS ± SD; N-terminal Cys peptide on AFM tip via PEG linker.
Excerpt: as §1
as §3, with “The force measurements of MAPs with LUVs mimicking membranes and living cells were performed using the AFM5500 (Agilent Technologies, Chandler, AZ, USA)[19].” left out

Another series deals with HeLa cells. In words: Single-molecule force spectroscopy (AFM). It is filed as binding, human. As to conditions: RMS ± SD; N-terminal Cys peptide on AFM tip via PEG linker.
Excerpt: as §1
as §3, with “The force measurements of MAPs with LUVs mimicking membranes and living cells were performed using the AFM5500 (Agilent Technologies, Chandler, AZ, USA)[19].” left out

A short description of series [3]: RP-HPLC retention time (peptide hydrophobicity). It is filed as physicochemical. The note with it: used as measure of peptide hydrophobicity. The procedure:
All peptides were synthesized by solid-phase peptide synthesis using Fmoc (9-fluorenyl-methoxycar-bonyl) chemistry and rink amide 4-methylbenzhydrylamine resin (MBHA resin; 0.8 mmol/g), as described previously. The crude peptides were purified on a LC-6A preparative reversed-phase high performance liquid chromatography (RP-HPLC, Shimadzu, Kyoto, Japan) using a Zorbax 300 SB-C8 column (250 × 9.4 mm inner diameter, […] particle size, 300 Å pore size), as described previously. The purity of the peptides was characterized by analytical RP-HPLC, mass spectrometry, and amino acid analysis.

For another series, the system named is PC/Chol (8:1 w/w) LUVs. Briefly: Tryptophan fluorescence with LUVs. The note with it: PC/Chol (8:1 w/w) LUVs versus HEPES buffer, 25 °C. It is filed as binding.
Excerpt: (§4) In order to investigate the interaction between peptides and difference types of cell membranes, three different LUVs were used to mimic a prokaryotic cell membrane (PC/PG), a normal eukaryotic cell membrane (PC/Chol), and a cancer cell membrane (PC/SM/PE/PS/Chol). Tryptophan residue in the peptide sequence was used as a fluorescent probe to examine the interaction of peptides with model membranes. […] For example, in the PC/PG (7:3 w/w) anionic prokaryotic mimicking model membrane, peptides V13L and A12L/A20L had the strongest hydrophobicity with blue shift values of approximately 37 nm and 38 nm, respectively. Conversely, peptide V13E with a negative charge of glutamic acid residue, and peptide L6A/L17A with the lowest hydrophobicity had blue shift values of approximately 18 nm and 17 nm, respectively. […] In addition, within PC/SM/PE/PS/Chol (4.35:4.35:1:0.3:1 w/w) as a cancer-mimicking model membrane, the same results could be obtained in that peptide hydrophobicity correlates with anticancer activity and the blue shift values of peptides.
as §2
(§5) Three kinds of LUVs were prepared and cultured in HEPES buffer (pH 7.4, 10 mM HEPES, 150 mM NaCl) and the molar concentration was adjusted to 100 μM. A total of 14 μL of 100 μM MAPs was mixed with 686 μL of 100 μM liposomes at 25 °C for 10 min. A Shimadzu RF-5301PC, (excitation wavelength of […], emission wavelength of 300–450 nm) was used to measure the tryptophan fluorescence. Potassium iodide (KI) as a quencher was added to the previous reaction system for a final concentration of 0.02–0.08 M, respectively. The experimental data were plotted according to the Stern–Volmer equation F0/F = 1 + Ksv[Q], where F0 and F are the fluorescence intensity in the absence or presence of a quencher at concentration [Q], respectively, and Ksv is the Stern–Volmer quenching constant.

Series [4] relates to PC/SM/PE/PS/Chol (4.35:4.35:1:0.3:1 w/w) LUVs. In words: Tryptophan fluorescence with LUVs. As to conditions: PC/SM/PE/PS/Chol (4.35:4.35:1:0.3:1 w/w) LUVs versus HEPES buffer, 25 °C. It is filed as binding.
Excerpt: as §4, §2, §5

The mark [5] stands for this setting: geometric mean of MIC values from two gram-positive strains.

Where two headings read alike, the source gives them in different places.

Consider `CC[C@H](C)[C@H](NC(=O)[C@H](C)NC(=O)[C@H](CCCCN)NC(=O)[C@H](CC(C)C)NC(=O)[C@H](C)NC(=O)[C@@H](NC(=O)[C@H](Cc1cnc[nH]1)NC(=O)[C@H](CC(C)C)NC(=O)[C@@H](NC(=O)[C@@H](NC(=O)[C@H](CCCCN)NC(=O)[C@H](CCCCN)NC(=O)[C@H](C)NC(=O)[C@H](CO)NC(=O)[C@H](CCCCN)NC(=O)[C@H](Cc1ccccc1)NC(=O)[C@@H](NC(=O)[C@H](CCCCN)NC(=O)[C@H](CC(C)C)NC(=O)[C@H](Cc1ccccc1)NC(=O)[C@H](CO)NC(=O)[C@H](CCCCN)NC(=O)[C@H](Cc1c[nH]c2ccccc12)NC(=O)[C@H](CCCCN)NC(C)=O)[C@@H](C)O)[C@@H](C)O)C(C)C)[C@@H](C)O)C(=O)N[C@@H](CO)C(=O)N[C@@H](CO)C(N)=O` [Peptide V13K], for which the “G+ MIC GM” value in series [1] (setting [5]) is 11.31 µM. Also, in the series with PC/PG (7:3 w/w) LUVs, the “Unbinding force PC/PG” value turned out to be 135 ± 36 pN. In addition, the “Unbinding force PC/SM/PE/PS/Chol” value in series [2] worked out at 128 ± 51 pN. Further, the “Unbinding force 3T3-L1” value in the series with 3T3-L1 cells is on record as 51 ± 15 pN. In the series with HeLa cells, the “Unbinding force HeLa” value is listed as 52 ± 20 pN. Besides, the “tR (RP-HPLC retention time)” value in series [3] came to 38.790 min. Also, in the series with PC/Chol (8:1 w/w) LUVs, the “PC/Chol Blue shift” value was 4 nm. Also, the “PC/SM/PE/PS/Chol Blueshift” value in series [4] is on record as 27 nm.

For the molecule “Ac-KWKSFAKTFKSAKKTVAHTALKAISS-NH2 [L6A/L17A]”, in series [1] (setting [5]), the “G+ MIC GM” value amounted to 125 µM. Also, the “Unbinding force PC/PG” value with PC/PG (7:3 w/w) LUVs came out at 132 ± 41 pN. The “Unbinding force PC/SM/PE/PS/Chol” value in series [2] stood at 130 ± 36 pN. Besides, the “Unbinding force 3T3-L1” value in the series with 3T3-L1 cells is reported as 39 ± 12 pN. Besides, the “Unbinding force HeLa” value in the series on HeLa cells came out at 39 ± 11 pN. Also, the “tR (RP-HPLC retention time)” value in series [3] is reported as 32.210 min. The “PC/Chol Blue shift” value in the series with PC/Chol (8:1 w/w) LUVs was found to be 0 nm. In series [4], the “PC/SM/PE/PS/Chol Blueshift” value came out at 21 nm.

With “Ac-KWKSFLKTFKSAEKTVLHTALKAISS-NH2 [Peptide V13E]”, the “G+ MIC GM” value in series [1] was determined as 125 µM. Also, in the series on PC/PG (7:3 w/w) LUVs, the “Unbinding force PC/PG” value is reported as 111 ± 37 pN. In addition, the “Unbinding force PC/SM/PE/PS/Chol” value in series [2] is on record as 92 ± 34 pN. Besides, the “Unbinding force 3T3-L1” value in the series with 3T3-L1 cells amounted to 51 ± 11 pN. Also, in the series on HeLa cells, the “Unbinding force HeLa” value is on record as 36 ± 14 pN. For the same molecule, the “tR (RP-HPLC retention time)” value in series [3] amounted to 44.290 min. Further, in the series with PC/Chol (8:1 w/w) LUVs, the “PC/Chol Blue shift” value stood at 1 nm. Also, the “PC/SM/PE/PS/Chol Blueshift” value in series [4] stood at 23 nm.

As to “Ac-KWKSFLKTFKSALKTVLHTALKAISS-NH2 [Peptide V13L]”, the “G+ MIC GM” value in series [1] turned out to be 4 µM. For the same molecule, the “Unbinding force PC/PG” value with PC/PG (7:3 w/w) LUVs turned out to be 127 ± 34 pN. Also, the “Unbinding force PC/SM/PE/PS/Chol” value in series [2] is given as 124 ± 40 pN. Also, the “Unbinding force 3T3-L1” value in the series with 3T3-L1 cells was determined as 30 ± 11 pN. In addition, the “Unbinding force HeLa” value with HeLa cells worked out at 31 ± 10 pN. Also, in series [3], the “tR (RP-HPLC retention time)” value is given as 53.177 min. Also, the “PC/Chol Blue shift” value with PC/Chol (8:1 w/w) LUVs is 11 nm.

Source of the values: publication PMC4929710, “Specificity and mechanism of action of alpha-helical membrane-active peptides interacting with model and biological membranes by single-molecule force spectroscopy” (Scientific Reports, 2016).
